Crel data for five compounds are collected here from ChEMBL document CHEMBL1133042, “Convergent synthesis of ribonuclease L-active 2',5'-oligoadenylate-peptide nucleic acids” (Bioorg Med Chem Lett, 2000).

Assay [1] concerns the target T1, 2-5A-dependent ribonuclease (Homo sapiens) (UniProt Q05823).
T1 sequence (whole entry): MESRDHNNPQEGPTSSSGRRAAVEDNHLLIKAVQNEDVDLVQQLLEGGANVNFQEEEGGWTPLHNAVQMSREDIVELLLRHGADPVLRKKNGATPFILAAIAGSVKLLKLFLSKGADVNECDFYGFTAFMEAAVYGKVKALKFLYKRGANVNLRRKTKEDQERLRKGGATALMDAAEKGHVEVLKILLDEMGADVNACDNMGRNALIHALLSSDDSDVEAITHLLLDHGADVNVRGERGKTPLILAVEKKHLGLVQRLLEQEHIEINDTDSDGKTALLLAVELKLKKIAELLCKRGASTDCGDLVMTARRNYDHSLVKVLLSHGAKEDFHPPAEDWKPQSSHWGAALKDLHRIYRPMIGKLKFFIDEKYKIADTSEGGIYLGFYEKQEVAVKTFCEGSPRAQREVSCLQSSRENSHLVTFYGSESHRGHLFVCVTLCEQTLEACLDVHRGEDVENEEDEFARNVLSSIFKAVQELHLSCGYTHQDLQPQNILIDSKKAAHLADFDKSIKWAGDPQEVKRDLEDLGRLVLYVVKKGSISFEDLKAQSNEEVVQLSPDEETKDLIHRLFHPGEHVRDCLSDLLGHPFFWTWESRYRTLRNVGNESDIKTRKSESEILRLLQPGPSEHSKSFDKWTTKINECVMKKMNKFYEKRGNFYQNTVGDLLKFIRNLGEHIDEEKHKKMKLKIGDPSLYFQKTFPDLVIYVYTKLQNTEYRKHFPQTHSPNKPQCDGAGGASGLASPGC
Briefly: Relative binding affinity of compound to human recombinant Ribonuclease L, compared to that of 2-5A standard (Crel=1); No binding detected.

Assay [2] has as its target T1, 2-5A-dependent ribonuclease (Homo sapiens). Briefly: Relative ability of compound to activate Ribonuclease L to cleave poly(U)p[32P]Cp, compared to that of 2-5A standard (Crel=1); No cleavage detected.
For assay [3] the target is unchanged. Description: Relative binding affinity of compound to human recombinant Ribonuclease L, compared to that of 2-5A standard (Crel=1).
For assay [4] the target is unchanged. Description: Relative ability of compound to activate Ribonuclease L to cleave poly(U)p[32P]Cp, compared to that of 2-5A standard (Crel=1).

For `Cc1cn(CC(=O)N(CCNC(=O)CN(CCNC(=O)CN(CCNC(=O)CN(CCNC(=O)COCCOCCNC(=O)COCCOCCN2CC(COP(=O)(O)O)OC(n3cnc4c(N)ncnc43)C2)C(=O)Cn2cc(C)c(=O)[nH]c2=O)C(=O)Cn2cc(C)c(=O)[nH]c2=O)C(=O)Cn2cc(C)c(=O)[nH]c2=O)CC(N)=O)c(=O)[nH]c1=O` (stereo not given), the Crel result in assay [1] was “No binding”; in assay [2], “No cleavage”.

`CO[C@H]1[C@@H](OP(=O)(O)OC[C@H]2O[C@@H](n3cnc4c(N)ncnc43)[C@H](OP(=O)(O)OC[C@H]3O[C@@H](n4cnc5c(N)ncnc54)[C@H](OP(=O)(O)OC[C@H]4O[C@@H](n5cnc6c(N)ncnc65)[C@H](OP(=O)(O)O[C@@H]5CN(CCOCCOCC(=O)NCCOCCOCC(=O)NCCN(CC(=O)NCCN(CC(=O)NCCN(CC(=O)NCCN(CC(N)=O)C(=O)Cn6cc(C)c(=O)[nH]c6=O)C(=O)Cn6cc(C)c(=O)[nH]c6=O)C(=O)Cn6cc(C)c(=O)[nH]c6=O)C(=O)Cn6cc(C)c(=O)[nH]c6=O)C[C@H](n6cnc7c(N)ncnc76)O5)[C@@H]4O)[C@@H]3OC)[C@@H]2O)[C@H](n2cnc3c(N)ncnc32)O[C@@H]1COP(=O)(O)O`: the values for the Crel in assay [3] and in assay [4] were 1 and 14, respectively.

Take `Cc1cn(CC(=O)N(CCNC(=O)CN(CCNC(=O)CN(CCNC(=O)CN(CCNC(=O)COCCOCCNC(=O)COCCOCCN2C[C@@H](COP(=O)(O)O[C@@H]3[C@H](O)[C@@H](COP(=O)(O)O)O[C@H]3n3cnc4c(N)ncnc43)O[C@@H](n3cnc4c(N)ncnc43)C2)C(=O)Cn2cc(C)c(=O)[nH]c2=O)C(=O)Cn2cc(C)c(=O)[nH]c2=O)C(=O)Cn2cc(C)c(=O)[nH]c2=O)CC(N)=O)c(=O)[nH]c1=O`: the Crel result in assay [1] was “No binding”; in assay [2], “No cleavage”.

Consider `Nc1ncnc2c1ncn2[C@@H]1O[C@H](COP(=O)(O)O[C@@H]2[C@H](O)[C@@H](COP(=O)(O)O[C@@H]3[C@H](O)[C@@H](COP(=O)(O)O)O[C@H]3n3cnc4c(N)ncnc43)O[C@H]2n2cnc3c(N)ncnc32)[C@@H](O)[C@H]1O`, for which the Crel in assay [3] and in assay [4] was 1 each time.

On to `CO[C@H]1[C@@H](OP(=O)(O)OC[C@H]2O[C@@H](n3cnc4c(N)ncnc43)[C@H](OP(=O)(O)OC[C@@H]3CN(CCOCCOCC(=O)NCCOCCOCC(=O)NCCN(CC(=O)NCCN(CC(=O)NCCN(CC(=O)NCCN(CC(N)=O)C(=O)Cn4cc(C)c(=O)[nH]c4=O)C(=O)Cn4cc(C)c(=O)[nH]c4=O)C(=O)Cn4cc(C)c(=O)[nH]c4=O)C(=O)Cn4cc(C)c(=O)[nH]c4=O)C[C@H](n4cnc5c(N)ncnc54)O3)[C@@H]2O)[C@H](n2cnc3c(N)ncnc32)O[C@@H]1COP(=O)(O)O`, for which the Crel in assay [3] was 0.7; in assay [4], 47.6.
